Assay results as given in patent US7595401B2, “Therapeutic compounds and their use in cancer” (Myriad Pharmaceuticals, Inc., priority 2006, dated 2009).
pIC50: −log10 of the molar value.

What follows are molecules tested on purified human Hsp90 (assay: Binding Assay: fluorescence polarization with BODIPY-labeled geldanamycin). Details: 5 μM compound, BODIPY-GM 10 nM, Hsp90 30 nM.
How it was run: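 Fluorescence polarization competition with BODIPY-geldanamycin (10 nM final) and human Hsp90 (30 nM final) in HEPES-KOH pH 7.3 buffer with molybdate, NP-40, DTT; 2% DMSO, overnight at room temperature. Read 485/530 nm; percent inhibition from mP normalized to DMSO controls, fluorescent-compound points excluded.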

Going from `Nc1ncn(Cc2ccccc2)c2nc(Sc3cc4c(cc3Br)OCO4)nc1-2` [Example 265, 3-Benzyl-8-[(6-bromo-1,3-benzodioxol-5-yl)thio]-3H-purin-6-amine] to `Nc1ncn(CCn2cnc3ccccc3c2=O)c2nc(Sc3cc4c(cc3Br)OCO4)nc1-2` [Example 270, 3-(2-{6-Amino-8-[(6-bromo-1,3-benzodioxol-5-yl)thio]-3H-purin-3-yl}ethyl)quinazolin-4(3 H)-one], the “% Inhibition at 5 μM Compound Concentration” value (“% Inhibition” for short) falls from 20% to 7.0%.

Going from `Nc1ncn(CCc2ccccc2)c2nc(Sc3ccc(NC=O)c(O)c3)nc1-2` [Example 268, N-(4-{[6-Amino-3-(2-phenylethyl)-3H-purin-8-yl]thio}-2-hydroxyphenyl)formamide] to `Nc1ncn(CCc2ccccc2)c2nc(Sc3ccc4ncoc4c3)nc1-2` [Example 284, 8-(1,3-Benzoxazol-6-ylthio)-3-(2-phenylethyl)-3H-purin-6-amine], the “% Inhibition” value falls from 7.0% to 3.0%.

Compared with `COc1ccc(OC)c(Sc2nc3c(N)ncn(CCn4cnc5ccccc5c4=O)c-3n2)c1` [Example 272, 3-(2-{6-Amino-8-[(2,5-dimethoxyphenyl)thio]-3H-purin-3-yl}ethyl)quinazolin-4(3 H)-one], `CCCCNC(=O)Nc1ccc(CCn2cnc(N)c3nc(Sc4cc(OC)ccc4OC)nc2-3)cc1` [Example 278, N-[4-(2-{6-Amino-8-[(2,5-dimethoxyphenyl)thio]-3H-purin-3-yl}ethyl)phenyl]-N′-butylurea] is lower in “% Inhibition” value: 16% for the first, 1.0% for the second.

`CC(C)(C)NS(=O)(=O)c1ccc(CCn2cnc(N)c3nc(Sc4cc5c(cc4Br)OCO5)nc2-3)cc1` [Example 274, 4-(2-{6-Amino-8-[(6-bromo-1,3-benzodioxol-5-yl)thio]-3H-purin-3-yl}ethyl) N-(tert-butyl)benzenesulfonamide] and `COc1ccc(OC)c(Sc2nc3c(N)ncn(CCc4ccc(S(=O)(=O)NC(C)(C)C)cc4)c-3n2)c1` [Example 276, 4-(2-{6-Amino-8-[(2,5-dimethoxyphenyl)thio]-3H-purin-3-yl}ethyl)-N-(tert-butyl)benzenesulfonamide] are the same in “% Inhibition” value: 0.0% for the first, 0.0% for the second.

In the case of `COc1ccc(OC)c(Sc2nc3c(N)ncn(CC4(c5ccc(Cl)cc5)CC4)c-3n2)c1` [Example 280, 3-{[1-(4-Chlorophenyl)cyclopropyl]methyl}-8-[(2,5-dimethoxyphenyl)thio]-3H-purin-6-amine], the “% Inhibition” value was 0.0%.

Same assay, conditions: BODIPY-GM 10 nM, Hsp90 30 nM

Going from `Nc1ncnc2c1nc(Sc1cc3c(cc1Br)OCO3)n2CCc1ccc(F)cc1` [Example 249, 8-[(6-Bromo-1,3-benzodioxol-5-yl)thio]-9-[2-(4-fluorophenyl)ethyl]-9H-purin-6-amine] to `COc1ccc(CCn2c(Sc3cc4c(cc3Br)OCO4)nc3c(N)ncnc32)cc1` [Example 250, 8-[(6-Bromo-1,3-benzodioxol-5-yl)thio]-9-[2-(4-methoxyphenyl)ethyl]-9H-purin-6-amine], the pIC50 falls from 7.00 to 6.05 (0.95 log units).

Compared with `COc1ccc(OC)c(Sc2nc3c(N)ncnc3n2CCc2c(Cl)cccc2Cl)c1` [Example 251, 9-[2-(2,6-Dichlorophenyl)ethyl]-8-[(2,5-dimethoxyphenyl)thio]-9H-purin-6-amine], `COc1cc(Sc2nc3c(N)ncnc3n2CCc2c(Cl)cccc2Cl)c(OC)cc1Cl` [Example 255, 8-[(4-Chloro-2,5-dimethoxyphenyl)thio]-9-[2-(2,6-dichlorophenyl)ethyl]-9H-purin-6-amine] is 0.52 log units lower in pIC50: 7.12 for the first, 6.60 for the second. The first is the more potent here.

`Nc1ncnc2c1nc(Sc1cccc(OC(F)F)c1)n2CCc1ccccc1` [Example 252, 8-{[3-(Difluoromethoxy)phenyl]thio}-9-(2-phenylethyl)-9H-purin-6-amine] and `Nc1ncnc2c1nc(Sc1cccc(OC(F)F)c1)n2CCc1ccccc1Cl` [Example 258, 9-[2-(2-Chlorophenyl)ethyl]-8-{[3-(difluoromethoxy)phenyl]thio}-9H-purin-6-amine] cannot be ordered by pIC50: less than 4.60 for the first, less than 4.60 for the second.

`Nc1ncnc2c1nc(Sc1cccc(OC(F)F)c1)n2CCc1c(Cl)cccc1Cl` [Example 253, 9-[2-(2,6-Dichlorophenyl)ethyl]-8-{[3-(difluoromethoxy)phenyl]thio}-9H-purin-6-amine] and `Nc1ncnc2c1nc(Sc1cccc(OC(F)F)c1)n2CCc1c(F)cccc1Cl` [Example 254, 9-[2-(2-Chloro-6-fluorophenyl)ethyl]-8-{[3-(difluoromethoxy)phenyl]thio}-9H-purin-6-amine] cannot be ordered by pIC50: less than 5.10 for the first, less than 5.10 for the second.

Going from `COc1cc(Sc2nc3c(N)ncnc3n2CCc2c(F)cccc2Cl)c(OC)cc1Cl` [Example 256, 8-[(4-Chloro-2,5-dimethoxyphenyl)thio]-9-[2-(2-chloro-6-fluorophenyl)ethyl]-9H-purin-6-amine] to `COc1cc(Sc2nc3c(N)ncnc3n2CCc2ccccc2Cl)c(OC)cc1Cl` [Example 260, 8-[(4-Chloro-2,5-dimethoxyphenyl)thio]-9-[2-(2-chlorophenyl)ethyl]-9H-purin-6-amine], the pIC50 falls from 6.33 to 5.82 (0.51 log units). The first is the more potent here.

Going from `COc1cc(Sc2nc3c(N)ncnc3n2CCc2ccccc2)c(OC)cc1Cl` [Example 257, 8-[(4-Chloro-2,5-dimethoxyphenyl)thio]-9-(2-phenylethyl)-9H-purin-6-amine] to `COc1cc(Sc2nc3c(N)ncnc3n2CCc2ccccc2)c(Cl)c(OC)c1OC` [Example 286, 8-[(2-Chloro-3,4,5-trimethoxyphenyl)thio]-9-(2-phenylethyl)-9H-purin-6-amine], the pIC50 rises from less than 4.60 to 5.52. The second is the more potent here.

First: Nc1ncnc2c1nc(Sc1cc(Cl)c(Cl)cc1Cl)n2CCc1ccccc1 [Example 259, 9-(2-Phenylethyl)-8-[(2,4,5-trichlorophenyl)thio]-9H-purin-6-amine]
Second: Nc1ncnc2c1nc(Sc1cc(Cl)c(Cl)cc1Cl)n2CCc1ccccc1Cl [Example 262, 9-[2-(2-Chlorophenyl)ethyl]-8-[(2,4,5-trichlorophenyl)thio]-9H-purin-6-amine]
The pIC50 of the first is higher: 4.92 for the first, less than 4.60 for the second.

Compared with `COc1cc(I)c(Sc2nc3c(N)ncnc3n2CCc2ccccc2Cl)cc1OC` [Example 261, 9-[2-(2-Chlorophenyl)ethyl]-8-[(2-iodo-4,5-dimethoxyphenyl)thio]-9H-purin-6-amine], `COc1ccccc1CCn1c(Sc2cc3c(cc2Br)OCO3)nc2c(N)ncnc21` [Example 287, 8-[(6-Bromo-1,3-benzodioxol-5-yl)thio]-9-[2-(2-methoxyphenyl)ethyl]-9H-purin-6-amine] is higher in pIC50: less than 4.60 for the first, 7.22 for the second.

Going from `COc1ccc(OC)c(Sc2nc3c(N)ncnc3n2Cc2ccc(F)cc2)c1` [Example 266, 8-[(2,5-Dimethoxyphenyl)thio]-9-(4-fluorobenzyl)-9H-purin-6-amine] to `COc1ccc(OC)c(Sc2nc3c(N)ncnc3n2CC2(c3ccc(Cl)cc3)CC2)c1` [Example 279, 9-{[1-(4-Chlorophenyl)cyclopropyl]methyl}-8-[(2,5-dimethoxyphenyl)thio]-9H-purin-6-amine], the pIC50 falls from 4.92 to less than 4.60.

First: Nc1ncnc2c1nc(Sc1ccc(NC=O)c(O)c1)n2CCc1ccccc1 [Example 267, N-(4-{[6-Amino-9-(2-phenylethyl)-9H-purin-8-yl]thio}-2-hydroxyphenyl)formamide]
Second: Nc1ncnc2c1nc(Sc1ccc3ncoc3c1)n2CCc1ccccc1 [Example 283, 8-(1,3-Benzoxazol-6-ylthio)-9-(2-phenylethyl)-9H-purin-6-amine]
The pIC50 of the first is lower: less than 4.60 for the first, 4.92 for the second.

Going from `Nc1ncnc2c1nc(Sc1cc3c(cc1Br)OCO3)n2CCn1cnc2ccccc2c1=O` [Example 269, 3-(2-{6-Amino-8-[(6-bromo-1,3-benzodioxol-5-yl)thio]-9H-purin-9-yl}ethyl)quinazolin-4(3 H)-one] to `Nc1ccccc1CCn1c(Sc2cc3c(cc2Br)OCO3)nc2c(N)ncnc21` [Example 282, 9-[2-(2-Aminophenyl)ethyl]-8-[(6-bromo-1,3-benzodioxol-5-yl)thio]-9H-purin-6-amine], the pIC50 rises from 5.26 to 7.26 (2.00 log units). The second is the more potent here.

First: COc1ccc(OC)c(Sc2nc3c(N)ncnc3n2CCn2cnc3ccccc3c2=O)c1 [Example 271, 3-(2-{6-Amino-8-[(2,5-dimethoxyphenyl)thio]-9H-purin-9-yl}ethyl)quinazolin-4(3 H)-one]
Second: CCC(Cn1c(Sc2cc(OC)ccc2OC)nc2c(N)ncnc21)c1ccccc1 (stereo not drawn) [Example 285, 8-[(2,5-Dimethoxyphenyl)thio]-9-(2-phenylbutyl)-9H-purin-6-amine]
The pIC50 of the first is lower: less than 4.60 for the first, 5.89 for the second.

Going from `CC(C)(C)NS(=O)(=O)c1ccc(CCn2c(Sc3cc4c(cc3Br)OCO4)nc3c(N)ncnc32)cc1` [Example 273, 4-(2-{6-Amino-8-[(6-bromo-1,3-benzodioxol-5-yl)thio]-9H-purin-9-yl}ethyl)-N-(tert-butyl)benzenesulfonamide] to `CCCCNC(=O)Nc1ccc(CCn2c(Sc3cc4c(cc3Br)OCO4)nc3c(N)ncnc32)cc1` [Example 281, N-[4-(2-{6-Amino-8-[(6-bromo-1,3-benzodioxol-5-yl)thio]-9H-purin-9-yl}ethyl)phenyl]-N′-butylurea], the pIC50 rises from 5.89 to 6.92 (1.03 log units). The second is the more potent here.

`COc1ccc(OC)c(Sc2nc3c(N)ncnc3n2CCc2ccc(S(=O)(=O)NC(C)(C)C)cc2)c1` [Example 275, 4-(2-{6-Amino-8-[(2,5-dimethoxyphenyl)thio]-9H-purin-9-yl}ethyl)-N-(tert-butyl)benzenesulfonamide] and `CCCCNC(=O)Nc1ccc(CCn2c(Sc3cc(OC)ccc3OC)nc3c(N)ncnc32)cc1` [Example 277, N-[4-(2-{6-Amino-8-[(2,5-dimethoxyphenyl)thio]-9H-purin-9-yl}ethyl)phenyl]-N′-butylurea] cannot be ordered by pIC50: less than 5.52 for the first, less than 5.10 for the second.

Going from `COc1cccc(Sc2nc3c(N)ncn(CCc4ccccc4)c-3n2)c1` [Example 288, 8-[(3-Methoxyphenyl)thio]-3-(2-phenylethyl)-3H-purin-6-amine] to `Nc1ncnc2c1nc(Sc1ccc3c(c1)OCO3)n2CCc1ccccc1Cl` [Example 289, 8-(1,3-Benzodioxol-5-ylthio)-9-[2-(2-chlorophenyl)ethyl]-9H-purin-6-amine], the pIC50 rises from 5.40 to 5.80 (0.40 log units).
